Measurements from patent US20140234364A1, “TOTAL SYNTHESIS AND IMM[…] […] OF THE LIPOPOLY[…] NEISSERIA MENINGITIDIS” (MAX-PLANCK-GESELLSCHAFT ZUR FÖRDERUNG DER WISSENSCHAFTEN …, priority 2011, published 2014).

Test system: female BALB/c mice
Experiment: Immunization of mice in presence of Freund's adjuvant, antibody responses in sera analyzed by glycan microarray
Assay type: in vivo
Protocol: To evaluate the immunogenicity of the meningococcal tetrasaccharide 1, two groups of six female BALB/c mice, six to eight weeks old, were immunized subcutaneously (s.c.) in presence of Freund's adjuvant (FA). Each mouse of the first group was immunized s.c. with 0.4 μg unconjugated tetrasaccharide 1 antigen in presence of Freund's adjuvant (priming with Freund's Complete Adjuvant, boosting with Freund's Incomplete Adjuvant, both Sigma). Each mouse of the second group received tetrasaccharide 1-CRM197 conjugate, whereby the amount of conjugate corresponded to 0.4 μg tetrasaccharide 1 antigen. Two weeks after initial immunizations, first boosting injection was performed with 4 μg tetrasaccharide 1 or the corresponding tetrasaccharide 1-CRM197 conjugate.
For all immunizations, antigen was diluted in sterile PBS to a total injection volume of 100 μL per mouse. Blood was collected at the tail vein and erythrocytes were separated from serum by centrifugation. All blood samples from the initial immunization study with FA were diluted with 10 μl sterile PBS before sera separation. Sera were collected in definited time intervals and IgG antibody responses were analyzed by microarray.
Tetrasaccharide 1 in three different concentrations (1, 0.5 and 0.1 mM), CRM197 (1, 0.5 and 0.1 μM) and bovine serum albumin (BSA)-spacer-GlcNAc conjugate (1, 0.5 and 0.1 μM) were dissolved in sodium phosphate buffer (50 mM, pH 8.5) and printed in triplicate robotically using a piezoelectric spotting device (S11, Scienion, Berlin, Germany) onto the surface of the microarray slides (NHS-activated glass slides; CodeLink). BSA-spacer-GlcNAc was used to assess immunogenicity against the spacer moiety of the conjugate. […]
The quenched array slides were blocked for 1 hour with 1% (w/v) BSA in PBS, then washed three times with PBS and dried by centrifugation. […] Then, slides were incubated with fluorescence-labeled detection antibody diluted in 1% BSA-PBS (w/v) for 1 hour at room temperature in a humid chamber. […]

**Q.** With CC(=O)NC1C(O)[C@H](O)C(CO)O[C@@H]1OC1C(O)[C@H](O)C([C@@H](O)CO)O[C@@H]1OC1C(O)[C@@H](O[C@@H]2C(O)C[C@](OCCCCCN)(C(=O)O)OC2[C@H](O)CO)OC([C@@H](O)CO)[C@H]1O (stereo partly drawn) [tetrasaccharide 1, 2-N-acetyl-2-deoxy-α-D-glucopyranosyl-(1→2)-L-glycero-α-D-manno-heptopyranosyl-(1→3)-L-glycero-α-D-manno-heptopyranosyl-(1→5)-2-(5-amino)pentyl-3-deoxy-α-D-manno-oct-2-ulopyranosidonic acid] as the compound, how does the “IgG antibody response, anti-tetrasaccharide 1 titers (fluorescence intensity)” value (1:80 sera dilution, after first boosting, Freund's adjuvant) read?
**A.** Its value is “relatively weak”.

**Q.** And the “Tetrasaccharide 1-specific IgG and IgM antibody responses in pooled sera” value (after first boosting with 4 μg (4. week), Freund's adjuvant)?
**A.** Its value is “identified”.

**Q.** And the “IgG response one week after second boosting” value (second boost 4 μg antigen in week 8, read in week 9)?
**A.** The value was “marginal increase”.
